Results as given in patent US6676950B2, “Neurokinin receptor antagonists and methods of use thereof for inhibiting HIV infection” (The Children's Hospital of Philadelphia, priority 2001, dated 2004).

Key:
[1] = tested on: CCR5; assay: Flow cytometry of CCR5 receptor expression on MDM; assay type: cell-based, human
Experimental: The cells were removed from the culture plate and then resuspended in 100 μl of phosphate-buffered saline (PBS). After incubation with 20 μl of either anti-CCR5-FITC or anti-CXCR4-FITC or anti-CD4-FITC or anti-CD14-FITC for 45 min at 4° C., the cells were washed twice with PBS and fixed with 1% paraformaldehyde in PBS. Fluorescein-conjugated control antibodies were isotype-matched IgG. Fluorescence was analyzed on an EPICS-Elite flow cytometer (Beckman-Coulter Electronics, Hialeah, Fla.).

[2] = tested on: R5 strains (Bal, ADA, CSF-6 and BL-6); assay: HIV RT activity in MDM infected with R5 strains; assay type: cell-based; conditions: 8 days after infection
Experimental: Based upon their differential use of the major HIV co-receptors, HIV isolates have been referred to as R5, X4 or R5X4 strains, respectively (29). The M-tropic (macrophage-tropic) R5 prototype strains (Bal and ADA), dual tropic strain (89.6) and X4 primary isolate (UG024), were obtained from the NIH AIDS Reagent Program. Primary M-tropic isolates (BL-6 and CSF-6) were isolated from the blood and cerebrospinal fluid cells, respectively, of a subject with AIDS. […] The cells were also incubated with SP and/or anti-SP antibody. In this case, SP was incubated with (1:1000 dilution in 10% FCS DMEM) or without anti-SP antibody at room temperature for 10 min and then the mixture was added to the cell cultures for 2 h. When the cells were treated with the combination of CP-96,345 and SP, or CP-96,345, SP and anti-SP antibody, CP-96,345 was incubated with the cell culture for 10 min and then SP was added to the MDM or CP-96,345, SP and anti-SP (1:1000 in 10% FCS DMEM) were incubated for 10 min at room temperature and the mixture was incubated with the MDM for 2 h before infection with HIV. Untreated MDM served as controls. The cells were treated prior to, during, and throughout the infection. […]

[3] = tested on: luciferase-encoding HIV virions pseudotyped with ADA Env (CCR5-dependent); assay: Pseudotype reporter virus entry assay, ADA Env; assay type: cell-based
Experimental: Pseudotype reporter virus entry assay: Recombinant luciferase-encoding HIV virions pseudotyped with Env from the M-tropic ADA (CCR5-dependent) and amphitropic murine leukemia virus (MLV) (CCR5-independent) were used to study HIV infection of MDM incubated with or without CP-96,345 or R-113281. The Env-deleted luciferase reporter plasmid PNL-Luc-E-R+ (kindly provided by N. Landau) was cotransfected into 293T cells along with plasmids encoding the ADA or MLV Env genes as previously described (31). Supernatants were collected 48 h later, assayed for p24^Gag antigen content, and frozen at −80° C. MDM (2.5×10^5 cells/well, in 48-well plates) were incubated overnight with or without CP-96,345 or R-113281 and then infected using 20 ng of p24^Gag antigen equivalent of each pseudotype HIV per well, in the presence of polybrene (7.5 μg/ml). At 72 h postinfection, the cells were lysed in 150 μl of 0.5% Triton-X-100 in PBS. Lysate (50 μl) was mixed with an equal volume of luciferase substrate (Promega, […].) and luciferase activity was determined in a microtiter plate luminometer (Dynex Technologies, Chantilly, Va.). The results were expressed as relative light units (RLU) in CP-96,345-treated or R-113281-treated and infected MDM as a percentage of that in untreated and infected MDM.

[4] = tested on: HIV LTR promoter; assay: HIV LTR-driven CAT activity assay in U38 cells; assay type: cell-based
From the text: ACH-2 and U38 cell lines (25, 26) were obtained from the NIH AIDS Reagent Program. DNA extracted from ACH-2 cells was used as a positive standard for HIV DNA PCR as previously reported (27). The U38 cell line contains stably integrated, silent copies of the HIV LTR (long terminal repeat) promoter linked to a CAT (chloramphenicol acetyltransferase) gene and was used to study the effect of SP and/or CP-96,345 and R-113281 on the activation of HIV LTR promoter.
Chloramphenicol acetyltransferase (CAT) activity assay: U38 cells (2×10^6 cells) were incubated with different concentrations of SP and/or CP-96,345 or R-113281 for 48 h. Untreated U38 cells were used as a background control. Cellular proteins were extracted using 1X Reporter Lysis Bufffer (Promega Corp., Madison, Wis.). The lysates were incubated with a mixture containing 0.15 μCi of ^14C-labeled chloramphenicol (DuPont Inc., Boston, Mass.) and 200 μg/ml of n-Butyryl CoA (Promega Corp., Madison, Wis.) in a total volume of 125 μl at 37° C. for 3 h. The acetylated forms of chloramphenicol were extracted with xylene (Aldrich Chemical Company, Milwaukee, Wis.). CAT activity of each sample was quantified using a liquid-scintillation counter (Packard Instrument Company, Downers Grove, Ill.). The results were expressed as the ratio of CAT activity (CPM) of the SP and/or CP-96,345-treated or R-113281-treated U38 to that of the background control.

SMILES | CCR5 receptor expression on MDM (percentage positive cells) ([1]; incubated overnight (24 h), direct immunofluorescence) | replication of R5 strains (HIV RT activity) ([2]; CP-96,345 10^−7M) | ADA Env-pseudotyped HIV infection of MDM (luciferase activity) ([3]; CP-96,345 10^−8 and 10^−7 M overnight pretreatment) | effect on SP activation of HIV LTR-driven CAT activity ([4]; SP 10^−8M plus CP-96,345 10^−6M, 48 h) | CCR5 protein expression (percentage of CCR5 positive cells, flow cytometry) ([1]; R-113281 10^−6 M, 24 hours) | replication of R5 strains (HIV RT activity) ([2]; R-113281 10^−6 M) | ADA Env-pseudotyped HIV infection of MDM (luciferase activity) ([3]; R-113281 10^−7 and 10^−6 overnight pretreatment) | effect on SP activation of HIV LTR-driven CAT activity ([4]; SP (10^−8M) plus R-113281 (10^−6M), 48 hours)
COc1ccccc1CN[C@H]1C2CCN(CC2)[C@H]1C(c1ccccc1)c1ccccc1 [CP-96,345, [2S,3S)-cis-2-(diphenylmethyl)-N-[(2-methoxyphenyl)-methyl]-1-azabicyclo [[2.2.2]-octan-3-amine]] | down-regulated | inhibited | inhibited | abrogated | – | – | – | –
COc1cc(C(=O)N2CCO[C@](CCN3CCC4(CC3)c3ccccc3C[S@+]4[O-])(c3ccc(Cl)c(Cl)c3)C2)cc(OC)c1OC.Cl [R-113281] | – | – | – | – | inhibited | inhibited | inhibited | abrogated
